Experimental data from article PMC6270666, “Flavonoids with M1 Muscarinic Acetylcholine Receptor Binding Activity” (Molecules, 2014).
Like-named read-outs stand apart in the source and are kept apart here.

Legend:
[1] = biological target: T1, cloned human M1 mAChRs (Homo sapiens, UniProt P11229); assay: M1 mAChR radioligand binding assay ([3H]N-methylscopolamine displacement)
T1 construct: purchased Perkin Elmer; host or cells: stably transfected CHO-K1 cell lines (membrane preparation)
T1 sequence (P11229 1-460): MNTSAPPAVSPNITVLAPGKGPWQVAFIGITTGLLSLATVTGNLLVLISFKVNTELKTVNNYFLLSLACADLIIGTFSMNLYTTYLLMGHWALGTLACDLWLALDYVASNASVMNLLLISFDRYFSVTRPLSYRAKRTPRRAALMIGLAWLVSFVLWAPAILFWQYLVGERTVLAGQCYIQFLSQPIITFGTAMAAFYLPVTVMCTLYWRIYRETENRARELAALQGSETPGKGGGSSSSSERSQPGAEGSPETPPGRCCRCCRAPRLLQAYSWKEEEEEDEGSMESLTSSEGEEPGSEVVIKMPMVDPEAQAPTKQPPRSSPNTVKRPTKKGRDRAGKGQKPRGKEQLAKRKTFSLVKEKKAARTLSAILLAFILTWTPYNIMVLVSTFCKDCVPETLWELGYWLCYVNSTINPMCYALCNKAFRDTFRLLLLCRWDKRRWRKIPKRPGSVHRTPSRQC

[2] = tested on: cholinesterase; design: method as in PMID 20030514; settings: cited from earlier work
[3] = tested on: SH-SY5Y neuroblastoma cells; settings: cited from earlier work
[4] = tested on: amyloid β25-35 peptide-induced toxicity in mice; settings: cited from earlier work
[5] = tested on: streptozotocin-induced diabetic rats; design: method as in PMID 23415807; settings: cited from earlier work
[6] = tested on: DYRK1A; design: method as in PMID 22673832; settings: cited from earlier work
[7] = tested on: CLK1; design: method as in PMID 22673832; settings: cited from earlier work
[8] = displacement of [3H]N-methylscopolamine 0.2 nM, M1 mAChR membranes from CHO-K1 cells, 27 °C, 120 min, mean ± SEM (n = 2), read-out: IC50
[9] = Cheng-Prusoff from IC50, [3H]N-methylscopolamine 0.2 nM, M1 mAChR membranes from CHO-K1 cells, mean ± SEM (n = 2), read-out: Ki

COc1cc(OC)c2c(=O)cc(-c3ccc(OC)c(OC)c3)oc2c1 [Compound 1, 3',4',5,7-Tetramethoxyflavone]
IC50 [1]: > 10000 µM

COc1cc(OC)c2c(=O)cc(-c3cc(OC)c(OC)c(OC)c3)oc2c1 [Compound 2, 3',4',5',5,7-Pentamethoxyflavone]
IC50 [1, 8]: > 10000 µM | melting point: 195 °C

COc1ccc(-c2cc(=O)c3c(OC)c(OC)c(OC)cc3o2)cc1OC [Compound 3, 3',4',5,6,7-Pentamethoxyflavone]
IC50 [1, 8]: > 10000 µM

COc1cc(-c2cc(=O)c3c(OC)c(OC)c(OC)cc3o2)cc(OC)c1OC [Compound 4, 3',4',5',5,6,7-Hexamethoxyflavone]
Ki [1, 9]: 107 ± 11 µM | IC50 [1, 8]: 257 ± 27 µM

O=c1cc(-c2ccc(O)cc2)oc2cc(O)cc(O)c12 [Compound 5, Apigenin]
IC50 [1]: > 10000 µM

O=c1cc(-c2ccc(O)c(O)c2)oc2cc(O)cc(O)c12 [Compound 6, Luteolin]
IC50 [1]: 226 ± 14 µM | Ki [1]: 94 ± 6 µM | cholinesterase inhibitory activity [2]: cholinesterase inhibitory activity | effect on hydrogen peroxide-induced apoptosis [3]: protective effects | effect against amyloid β25-35 peptide-induced toxicity [4]: anti-amnesic effects | effect on cognitive decline [5]: attenuation of cognitive decline

O=c1c(O)c(-c2ccc(O)c(O)c2)oc2cc(O)ccc12 [Compound 8, Fisetin]
IC50 [1, 8]: > 10000 µM

COc1cc(O)c2c(=O)c(O)c(-c3ccc(OC)c(O)c3)oc2c1 [Compound 9, 3ʹ,3,5-Trihydroxy-4ʹ,7-dimethoxyflavone]
Ki [1, 9]: 42 ± 3 µM | IC50 [1, 8]: 101 ± 6 µM | inhibition of DYRK1A kinase [6]: potent inhibitor | inhibition of CLK1 kinase [7]: potent inhibitor

COc1ccc(-c2oc3cc(OC)c(OC)cc3c(=O)c2O)cc1OC [Compound 10, 3-Hydroxy-3ʹ,4ʹ,6,7-tetramethoxyflavone]
IC50 [1, 8]: > 10000 µM | melting point: 225 to 226 °C

O=c1c(O)c(-c2ccc(O)cc2)oc2cc(O)cc(O)c12 [Compound 11, Kaempferol]
IC50 [1, 8]: > 10000 µM

O=c1c(O)c(-c2ccc(O)c(O)c2)oc2cc(O)cc(O)c12 [Compound 12, Quercetin]
IC50 [1, 8]: > 10000 µM

O=c1c(O)c(-c2cc(O)c(O)c(O)c2)oc2cc(O)cc(O)c12 [Compound 13, Myricetin]
IC50 [1]: > 10000 µM
